Where “and” joins values, the source holds several entries; their conditions need not be identical. Identical values can stand only once.
Test system: HeLa cells
Test: Toxicity to HeLa cells in culture, MTT (Example 23)
Type: cell-based, human
Details: 48 hours of culture
Procedure: The toxicity of Example 1 is compared to Chlorohexidine gluconate (a commonly used oral antiseptic) to human HeLa cells in culture is determined. HeLa cells are plated at subconfluency into a 96-well plate tissue culture plate, and after attachment, treated with the indicated final concentrations of Example 1 polymer or Chlorohexidine gluconate in triplicates. After 48 hours of culture, MTT reagent is added for two 2 hours to permit the development of viability-indicating color. 1 μM PAO (phenylarsine oxide) is used as a positive (effective killing) control. […] Furthermore, the minimum inhibitory concentration of Example 1 polymer is found to be about 10^−3% while that for the chlorohexidine gluconate is 6×10^−5%. This means that the Example 1 polymer is about […] less toxic to HeLa cells in culture than chlorohexidine gluconate.

## N=C(NCCCCCCNC(=N)NC(=N)Nc1ccc(Cl)cc1)NC(=N)Nc1ccc(Cl)cc1.O=C(O)[C@H](O)[C@@H](O)[C@H](O)[C@H](O)CO.O=C(O)[C@H](O)[C@@H](O)[C@H](O)[C@H](O)CO [chlorohexidine gluconate]
  Lethal dose 50 (LD50) for HeLa cells: ~0.0004% and > 1.2×10^−4%
